The values that follow are results of earlier work, collected in US10278642B2, “Methods of assessing metabolic function” (Aurum Biosciences Limited, priority 2012, dated 2019).

For the data set the following is noted: by 100 ml of the liquid at standard pressure and temperature.

Take `FC1(F)C(F)(F)C(F)(F)C2(F)C(F)(F)C(F)(F)C(F)(F)C(F)(F)C2(F)C1(F)F` (stereo not shown) [perfluorodecalin]: the oxygen dissolved is 49 mL.
